This is an account of results in patent publication US9624214B2, “Amino-substituted imidazo[1,2-a]pyridinecarboxamides and their use” (BAYER PHARMA AKTIENGESELLSCHAFT, priority 2012, dated 2017).

This assay has as its target T1, recombinant guanylate cyclase reporter cell line (Rattus norvegicus, UniProt P19686+P20595).
T1 construct: expressed in transfected cells
T1 sequence (P20595 1-619): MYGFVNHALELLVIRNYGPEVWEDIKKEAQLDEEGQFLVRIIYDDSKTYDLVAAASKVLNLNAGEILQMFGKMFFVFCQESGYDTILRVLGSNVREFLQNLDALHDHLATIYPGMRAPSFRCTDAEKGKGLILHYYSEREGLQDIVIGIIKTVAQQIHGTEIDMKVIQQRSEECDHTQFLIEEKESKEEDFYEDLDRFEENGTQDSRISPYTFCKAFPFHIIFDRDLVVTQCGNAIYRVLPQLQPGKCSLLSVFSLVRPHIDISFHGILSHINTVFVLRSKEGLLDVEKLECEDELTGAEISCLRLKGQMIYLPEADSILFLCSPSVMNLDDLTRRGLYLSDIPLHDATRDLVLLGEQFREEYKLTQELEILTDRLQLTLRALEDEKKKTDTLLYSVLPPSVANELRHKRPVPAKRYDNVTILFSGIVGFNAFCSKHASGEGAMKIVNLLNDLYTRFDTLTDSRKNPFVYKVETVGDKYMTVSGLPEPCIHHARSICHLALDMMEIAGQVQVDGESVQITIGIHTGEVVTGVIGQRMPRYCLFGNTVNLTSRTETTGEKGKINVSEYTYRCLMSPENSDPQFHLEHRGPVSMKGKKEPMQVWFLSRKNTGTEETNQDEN
T1 sequence (P19686 1-690): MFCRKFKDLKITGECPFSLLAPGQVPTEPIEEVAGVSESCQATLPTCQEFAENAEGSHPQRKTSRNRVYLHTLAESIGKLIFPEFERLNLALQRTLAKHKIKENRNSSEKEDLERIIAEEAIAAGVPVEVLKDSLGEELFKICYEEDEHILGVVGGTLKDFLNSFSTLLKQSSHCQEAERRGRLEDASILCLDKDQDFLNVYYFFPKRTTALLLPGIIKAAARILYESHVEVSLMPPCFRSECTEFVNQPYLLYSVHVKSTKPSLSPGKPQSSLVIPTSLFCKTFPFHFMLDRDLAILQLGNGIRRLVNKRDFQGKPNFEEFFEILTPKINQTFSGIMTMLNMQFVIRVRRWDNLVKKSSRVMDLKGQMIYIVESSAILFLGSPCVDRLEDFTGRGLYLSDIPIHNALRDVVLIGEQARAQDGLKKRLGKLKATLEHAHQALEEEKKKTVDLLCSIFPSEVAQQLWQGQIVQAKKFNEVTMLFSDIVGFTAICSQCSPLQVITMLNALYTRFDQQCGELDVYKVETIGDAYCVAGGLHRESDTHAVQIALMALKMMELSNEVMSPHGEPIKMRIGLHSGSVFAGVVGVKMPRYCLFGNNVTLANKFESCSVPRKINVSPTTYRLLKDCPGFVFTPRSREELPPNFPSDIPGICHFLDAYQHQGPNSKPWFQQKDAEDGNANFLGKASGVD
Description: B-2. Action on recombinant guanylate cyclase reporter cell line. In kind it is cell-based. Particulars: MEC = minimal effective concentration; in some cases mean values from individual determinations. Put shortly: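 Whole-cell reporter assay with recombinant guanylate cyclase; endpoint = minimal effective concentration.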

Each structure is given as a SMILES string. Structures can show the parent of a compound that is named as a salt.

As to `CCCC(C)(N)CNC(=O)c1c(C)nc2c(OCc3c(F)cccc3F)cc(Cl)cn12` (single isomer, unassigned) [Example 246, ent-N-(2-Amino-2-methylpentyl)-6-chloro-8-[(2,6-difluorobenzyl)oxy]-2-methylimidazo[1,2-a]-pyridine-3-carboxamide], the MEC is 0.30 µM. Then `COCC(N)CNC(=O)c1c(C)nc2c(OCc3c(F)cccc3F)cccn12` (single isomer, unassigned) [Example 247, ent-N-(2-Amino-3-methoxypropyl)-8-[(2,6-difluorobenzyl)oxy]-2-methylimidazo[1,2-a]pyridine-3-carboxamide], with 3.00 µM; and `CCCC(C)(N)CNC(=O)c1c(C)nc2c(OCc3c(F)ccc(F)c3F)cc(C)cn12` (single isomer, unassigned) [Example 295, ent-N-(2-amino-2-methylpentyl)-2,6-dimethyl-8-[(2,3,6-trifluorobenzyl)oxy]imidazo[1,2-a]pyridine-3-carboxamide], with 0.10 µM; and `CCCC(C)(N)CNC(=O)c1c(C)nc2c(OCc3c(F)ccc(F)c3F)cc(C)cn12` (single isomer, unassigned) [Example 304, ent-N-(2-amino-2-methylpentyl)-2,6-dimethyl-8-[(2,3,6-trifluorobenzyl)oxy]imidazo[1,2-a]pyridine-3-carboxamide], with 0.10 µM.

With `Cc1cc(OCc2c(F)cccc2F)c2nc(C)c(C(=O)NC3CCC(N)C3)n2c1` (single isomer, unassigned) [Example 309, ent-N-(3-aminocyclopentyl)-8-[(2,6-difluorobenzyl)oxy]-2,6-dimethylimidazo[1,2-a]pyridine-3-carboxamide], the MEC came to 0.30 µM. For the compound `Cc1nc2c(OCc3c(F)cccc3F)cccn2c1C(=O)NC(CN)CC(C(F)(F)F)C(F)(F)F` (single isomer, unassigned; enantiomer a) [Example 7, ent-N-[1-Amino-5,5,5-trifluoro-4-(trifluoromethyl)pentan-2-yl]-8-[(2,6-difluorobenzyl)oxy]-2-methylimidazo[1,2-a]pyridine-3-carboxamide (Enantiomer A)], the MEC stood at 1.00 µM.

Regarding `Cc1nc2c(OCc3c(F)cccc3F)cccn2c1C(=O)NC(CN)c1ccc(F)c(F)c1` (single isomer, unassigned; enantiomer a) [Example 12, ent-N-[2-Amino-1-(3,4-difluorophenyl)ethyl]-8-[(2,6-difluorobenzyl)oxy]-2-methylimidazo[1,2-a]-pyridine-3-carboxamide (Enantiomer A)], the MEC was 1.00 µM. With `Cc1nc2c(OCc3c(F)cccc3F)cccn2c1C(=O)NC(C)CN` (single isomer, unassigned; enantiomer a) [Example 19, ent-N-(1-Aminopropan-2-yl)-8-[(2,6-difluorobenzyl)oxy]-2-methylimidazo[1,2-a]pyridine-3-carboxamide (Enantiomer A)], the MEC was found to be 1.66 µM. For `Cc1nc2c(OCc3c(F)cccc3F)cc(Cl)cn2c1C(=O)NCC(C)N` (single isomer, unassigned; enantiomer a) [Example 29, ent-N-(2-Aminopropyl)-6-chloro-8-[(2,6-difluorobenzyl)oxy]-2-methylimidazo[1,2-a]pyridine-3-carboxamide (Enantiomer A)], the MEC is 0.20 µM.

Take `Cc1cc(OCc2c(F)cccc2F)c2nc(C)c(C(=O)NCC(C)(N)C3CC3)n2c1` (single isomer, unassigned; enantiomer a) [Example 260, ent-N-(2-Amino-2-cyclopropylpropyl)-8-[(2,6-difluorobenzyl)oxy]-2,6-dimethylimidazo[1,2-a]-pyridine-3-carboxamide (Enantiomer A)]: the MEC was 0.10 µM. Then `Cc1nc2c(OCc3c(F)cccc3F)cccn2c1C(=O)NCC(C)(N)CCOCc1ccccc1` (single isomer, unassigned; enantiomer a) [Example 266, ent-N-[2-Amino-4-(benzyloxy)-2-methylbutyl]-8-[(2,6-difluorobenzyl)oxy]-2-methylimidazo[1,2-a]pyridine-3-carboxamide (Enantiomer A)], with 0.03 µM.

For `Cc1cc(OCc2c(F)cccc2F)c2nc(C)c(C(=O)NCC(C)(N)CO)n2c1` (single isomer, unassigned; enantiomer a) [Example 268, ent-N-(2-Amino-3-hydroxy-2-methylpropyl)-8-[(2,6-difluorobenzyl)oxy]-2,6-dimethylimidazo-[1,2-a]pyridine-3-carboxamide (Enantiomer A)], the MEC turned out to be 0.55 µM. Then `Cc1cc(OCc2c(F)cccc2F)c2nc(C)c(C(=O)NCC(C)(N)CCO)n2c1` (single isomer, unassigned; enantiomer a) [Example 271, ent-N-(2-Amino-4-hydroxy-2-methylbutyl)-8-[(2,6-difluorobenzyl)oxy]-2,6-dimethylimidazo[1,2-a]pyridine-3-carboxamide (Enantiomer A)], with 0.30 µM; and `Cc1nc2c(OCc3c(F)cccc3F)cccn2c1C(=O)NCC(C)(N)CCO` (single isomer, unassigned; enantiomer a) [Example 272, ent-N-(2-Amino-4-hydroxy-2-methylbutyl)-8-[(2,6-difluorobenzyl)oxy]-2-methylimidazo[1,2-a]-pyridine-3-carboxamide (Enantiomer A)], with 5.5 µM; and `CCC(C)(N)CNC(=O)c1c(C)nc2c(OCc3c(F)ccc(F)c3F)cc(C)cn12` (single isomer, unassigned; enantiomer a) [Example 274, ent-N-(2-Amino-2-methylbutyl)-2,6-dimethyl-8-[(2,3,6-trifluorobenzyl)oxy]imidazo[1,2-a]-pyridine-3-carboxamide (Enantiomer A)], with 0.10 µM.

In the case of `CCC(C)(N)CNC(=O)c1c(C)nc2c(OCc3c(F)cccc3F)cc(OC)cn12` (single isomer, unassigned; enantiomer a) [Example 279, ent-N-(2-amino-2-methylbutyl)-8-[(2,6-difluorobenzyl)oxy]-6-methoxy-2-methylimidazo[1,2-a]pyridine-3-carboxamide (Enantiomer A)], the MEC stood at 0.3 µM. The figure for `Cc1cc(OCc2c(F)cccc2F)c2nc(C)c(C(=O)NCC(C)(N)CF)n2c1` (single isomer, unassigned; enantiomer a) [Example 283, ent-N-(2-amino-3-fluoro-2-methylpropyl)-8-[(2,6-difluorobenzyl)oxy]-2,6-dimethylimidazo[1,2-a]pyridine-3-carboxamide (Enantiomer A)] is 0.3 µM. The figure for `Cc1cc(OCc2c(F)ccc(F)c2F)c2nc(C)c(C(=O)NCC(C)(N)CF)n2c1` (single isomer, unassigned; enantiomer a) [Example 285, ent-N-(2-amino-3-fluoro-2-methylpropyl)-2,6-dimethyl-8-[(2,3,6-trifluorobenzyl)oxy]imidazo[1,2-a]pyridine-3-carboxamide (Enantiomer A)] is 0.3 µM; for `CCC(C)(N)CNC(=O)c1c(C)nc2c(OCc3c(F)cccc3F)cc(C(F)F)cn12` (single isomer, unassigned; enantiomer a) [Example 287, ent-N-(2-amino-2-methylbutyl)-8-[(2,6-difluorobenzyl)oxy]-6-(difluoromethyl)-2-methylimidazo[1,2-a]pyridine-3-carboxamide Formate (Enantiomer A)] it is 0.3 µM.
